Patent US8664275B2, “Crystalline form of Bimatoprost, preparation method and use thereof” (Shanghai Techwell Biopharmaceutical Co., Ltd., priority 2009, dated 2014)

Assay: Comparison of stability: sealed storage at 40° C., HPLC purity
Type: physicochemical
Settings: for degradation in stability test: sealed storage for 4 days at 40° C.
Text: The crystalline form A of Bimatoprost of the invention has specific stability, which is favorable for storage. The inventors compare the stability of the crystalline form A prepared by the method of the invention with that of the crystalline form B prepared in the prior art by stability test. […] Degradation products of the crystalline form B include a compound II and a compound III. […] As used herein, the term “HPLC purity” refers to the percentage of peak area of the compound as shown in formula I that is subject to HPLC detection and then area normalization according to the obtained chromatogram in the total peak area. The HPLC detection method is as follows: Chromatographic column: 4.6×150 mm 3 μm C18 column; column temperature: 35° C.; mobile phase: A: acetonitrile: water (20 mM potassium phosphate buffer solution; pH=2.8) 20:80; B: acetonitrile: water (20 mM potassium phosphate buffer solution; pH=2.8) 40:60; gradient elution conditions: A:B=100: 0, 1 min; A:B=100:0-40:60, 16 min; A:B=40:60, 4 min; A:B=40:60-100:0, 1 min. Flow rate: 1 ml/min; main peak retention time: around […]; sample volume 15 μl; column temperature: 35° C.±5° C.; detection wavelength: 210 nm; running time: 40 min. A sample of the crystal A of Bimatoprost prepared by Example 4 was taken (0.8 g; HPLC purity: 99.7%) and divided into 4 parts of equal amount; and the 4 parts were respectively hermetically placed under 40° C. for 1 day, 2 days, 3 days and 4 days and then sampled for analysis, wherein HPLC purity was 99.7%, 99.7%, 99.7% and 99.7% respectively. A sample of the crystal B of Bimatoprost prepared by Example 2 was taken (0.8 g; HPLC purity: 99.6%) and divided into 4 parts of equal amount; and the 4 parts were respectively hermetically placed under 40° C. for 1 day, 2 days, 3 days and 4 days and then sampled for analysis, wherein HPLC purity was 99.4%, 99.2%, 99.1% and 98.7% respectively.

| HPLC purity (hermetically placed under 40° C. for 1 day, listed as crystal A of Bimatoprost) [%] | HPLC purity (hermetically placed under 40° C. for 2 days, listed as crystal A of Bimatoprost) [%] | HPLC purity (hermetically placed under 40° C. for 3 days, listed as crystal A of Bimatoprost) [%] | HPLC purity (hermetically placed under 40° C. for 4 days, listed as crystal A of Bimatoprost) [%] | HPLC purity (sample before storage (initial), listed as crystal A of Bimatoprost) [%] | degradation in stability test | HPLC purity (hermetically placed under 40° C. for 1 day, listed as crystal B of Bimatoprost) [%] | HPLC purity (hermetically placed under 40° C. for 2 days, listed as crystal B of Bimatoprost) [%] | HPLC purity (hermetically placed under 40° C. for 3 days, listed as crystal B of Bimatoprost) [%] | HPLC purity (hermetically placed under 40° C. for 4 days, listed as crystal B of Bimatoprost) [%] | HPLC purity (sample before storage (initial), listed as crystal B of Bimatoprost) [%] | Structure (SMILES) |
| --- | --- | --- | --- | --- | --- | --- | --- | --- | --- | --- | --- |
| 99.7 | 99.7 | 99.7 | 99.7 | 99.7 | does not degrade | – | – | – | – | – | CCNC(=O)CCC/C=C\C[C@@H]1[C@@H](/C=C/[C@@H](O)CCc2ccccc2)[C@H](O)C[C@@H]1O [crystalline form A, (Z)-7-[(1R,2R,3R,5S)-3,5-dihydroxyl-2-[(E,3S)-3-hydroxyl-5-phenylpent-1-enyl]cyclopentyl]-N-ethylhept-5-eneamide] |
| – | – | – | – | – | obviously degrades | 99.4 | 99.2 | 99.1 | 98.7 | 99.6 | CCNC(=O)CCC/C=C\C[C@@H]1[C@@H](/C=C/[C@@H](O)CCc2ccccc2)[C@H](O)C[C@@H]1O [crystalline form B, (Z)-7-[(1R,2R,3R,5S)-3,5-dihydroxyl-2-[(E,3S)-3-hydroxyl-5-phenylpent-1-enyl]cyclopentyl]-N-ethylhept-5-eneamide] |
